Test systems include DLD-1; DMS-114; DMS-273; HOP-18; LXFL 529; M19-MEL; SNB-78; RXF 631; XF498.
Common to all, as to assay: NCI-60 cell line screen, 48 h

Each structure is given as a SMILES string.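 These data come from cells grown in 96-well plates and exposed to compound for 48 hours at five concentrations. GI50 marks 50% less growth.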 The source made the active and inactive calls. Rule as the data show it: active = GI50 up to about 1.1 µM and inactive = higher. A value given as a limit tells only on which side of the number the result lay.

As to `O=C1C[C@@H]2[C@@H](C=CC23CCCC3)N1O`, the GI50 with DLD-1, with DMS-114, with DMS-273, in the experiment on HOP-18, in the experiment on LXFL 529 and with M19-MEL was > 100 µM (inactive) in each case. Besides, the GI50 with SNB-78 is > 100 µM (inactive).
For `COC(=O)C1=C(C(=O)OC)C23CC1C1C(C(=O)OC)=C(C(=O)OC)C12C1C=CC3C2C(=O)OC(=O)C21` (stereo not given), the GI50 with DLD-1 is 76.9 µM (inactive); in the experiment with DMS-114, 26.6 µM (inactive); in the experiment on DMS-273 it was 36.6 µM (inactive); with LXFL 529, 39.6 µM (inactive); in the experiment on M19-MEL, 50.9 µM (inactive); with RXF 631, 71.6 µM (inactive). Also, the GI50 was 24.2 µM (inactive) in the experiment on SNB-78 and 45.9 µM (inactive) in the experiment on XF498.
In the case of `O=S(O)CCCCCSSSCCCCCS(=O)O`, the GI50 in the experiment with DLD-1 is 35.4 µM (inactive); with LXFL 529, 11.4 µM (inactive); with M19-MEL, 22.1 µM (inactive); with SNB-78, 45.6 µM (inactive); in the experiment on XF498, 5.32 µM (inactive).
As for `CC(C)OP(=O)(OC(C)C)/C(=N/Nc1ccc([N+](=O)[O-])cc1)Nc1ccc(N/C(=N\Nc2ccc([N+](=O)[O-])cc2)P(=O)(OC(C)C)OC(C)C)cc1`, the GI50 with DLD-1 was 4.72 µM (inactive); in the experiment with DMS-114 it was 9.51 µM (inactive); in the experiment with DMS-273, 5.58 µM (inactive); in the experiment with LXFL 529, 19.6 µM (inactive); with M19-MEL, 82.4 µM (inactive); in the experiment on XF498 it was > 100 µM (inactive).
Consider `C[C@@]12[Se]c3ccccc3[C@]1(C)[Se]c1ccccc12`, for which the GI50 in the experiment with DLD-1 was > 100 µM (inactive); with DMS-114, 2.12 µM (inactive); with DMS-273 it was 3.61 µM (inactive); in the experiment with HOP-18, > 100 µM (inactive); in the experiment with LXFL 529 it was > 100 µM (inactive); in the experiment with M19-MEL, 5.68 µM (inactive).
For the molecule `C=C1C(=O)O[C@@H]2[C@H](O)[C@@H](C)[C@@H]3C=CC(=O)[C@@]3(C)[C@H](OC(=O)C=C(C)C)[C@H]12`, the GI50 in the experiment on DLD-1 is 0.277 µM (active); in the experiment on DMS-114, 2.4 µM (inactive); in the experiment with DMS-273 it was 1.48 µM (inactive); in the experiment with HOP-18, 1.67 µM (inactive); in the experiment on M19-MEL, 1.12 µM (active); with XF498 it was 1.24 µM (inactive).
In the case of `CCCCCCCCCCCCCCCCCCOP(=O)([O-])OCC[N+](C)(C)C` [OCTADECYLPHOSPHONOCHOLINE], the GI50 with DLD-1 was 4.7 µM (inactive); in the experiment on DMS-114, 13.6 µM (inactive); in the experiment on DMS-273, 1.74 µM (inactive); in the experiment with HOP-18, 15.9 µM (inactive); in the experiment with M19-MEL, 4.24 µM (inactive); in the experiment with SNB-78 it was 10.2 µM (inactive). Moreover, the GI50 in the experiment with XF498 is 12.4 µM (inactive).
As to `Oc1c(C(Nc2cccc3cccnc23)c2ccccc2)ccc2cccnc12` (stereo not given), the GI50 with DMS-114 was 2.65 µM (inactive); in the experiment with DMS-273 it was 5.16 µM (inactive); in the experiment with HOP-18, 4.78 µM (inactive); in the experiment with LXFL 529, 4.13 µM (inactive); in the experiment with M19-MEL, 5.53 µM (inactive).
